Read-outs that look alike come from different tables or passages of the source.
Assays:
[1] = intravenous, concentrations required to deliver therapeutic doses of paclitaxel; cited from earlier work
HCT116 cells = experiment: In vitro cytotoxicity measured by the cell colony formation assay; format: cell-based; conditions: colonies counted after 7 days, read-out: IN VITRO ID 50 (nm) HCT116
In short: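 Colony-forming survival was scored 7 days after a 72 h, 37 °C compound exposure followed by washout into fresh medium.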

CC(=O)OCC(COC(C)=O)OC(C)=O [triacetin, glyceryl triacetate]
toxicity to mice [1]: toxic

CC(=O)O[C@@]12CO[C@@H]1C[C@H](O)[C@@]1(C)C(=O)[C@H](OC(=O)C3CC3)C3=C(C)[C@@H](OC(=O)[C@H](O)[C@@H](NC(=O)OC(C)(C)C)c4ccccc4)C[C@@](O)([C@@H](OC(=O)c4ccccc4)C12)C3(C)C (stereo partly shown) [Compound 0882]
IC50 (HCT116 cells; HCT116 colony formation, 72 h drug incubation, Example 10, C-10 ester/C-7 hydroxy taxanes): < 1 nM

CC(=O)O[C@H]1C[C@H]2OC[C@@]2(OC(C)=O)C2[C@H](OC(=O)c3ccccc3)[C@]3(O)C[C@H](OC(=O)[C@H](O)[C@@H](NC(=O)OCC(C)C)c4ccsc4)C(C)=C([C@@H](O)C(=O)[C@@]21C)C3(C)C (stereo partly shown) [Compound 4515]
IC50 (HCT116 cells; HCT116 cells, 72 h incubation with drug, ID50 = drug concentration producing 50% inhibition of colony formation): < 10 nM

C/C=C/C(=O)N[C@@H](c1ccco1)[C@@H](O)C(=O)O[C@H]1C[C@@]2(O)[C@@H](OC(=O)c3ccccc3)C3[C@](C)(C(=O)[C@H](O)C(=C1C)C2(C)C)[C@@H](OC(=O)COc1ccccc1)C[C@H]1OC[C@@]31OC(C)=O (stereo partly shown) [Compound 5811]
IC50 (HCT116 cells; HCT116 colony formation, 72 h drug incubation, Example 15, C-7 substituted acetate/C-10 hydroxy taxanes): < 1 nM

Source: patent US6638973B2, “Taxane formulations” (FSU Research Foundation, Inc., priority 2000, dated 2003)
